Laboratory results from ChEMBL document CHEMBL1148890, “Design, synthesis, and structure-activity relationship of carbamate-tethered aryl propanoic acids as novel PPARalpha/gamma dual agonists” (Bioorg Med Chem Lett, 2007).
pEC50: −log10 of the molar value.

Legend:
[1] = biological target: T1, Peroxisome proliferator-activated receptor alpha (Homo sapiens, UniProt Q07869)
T1 sequence (Q07869 whole entry): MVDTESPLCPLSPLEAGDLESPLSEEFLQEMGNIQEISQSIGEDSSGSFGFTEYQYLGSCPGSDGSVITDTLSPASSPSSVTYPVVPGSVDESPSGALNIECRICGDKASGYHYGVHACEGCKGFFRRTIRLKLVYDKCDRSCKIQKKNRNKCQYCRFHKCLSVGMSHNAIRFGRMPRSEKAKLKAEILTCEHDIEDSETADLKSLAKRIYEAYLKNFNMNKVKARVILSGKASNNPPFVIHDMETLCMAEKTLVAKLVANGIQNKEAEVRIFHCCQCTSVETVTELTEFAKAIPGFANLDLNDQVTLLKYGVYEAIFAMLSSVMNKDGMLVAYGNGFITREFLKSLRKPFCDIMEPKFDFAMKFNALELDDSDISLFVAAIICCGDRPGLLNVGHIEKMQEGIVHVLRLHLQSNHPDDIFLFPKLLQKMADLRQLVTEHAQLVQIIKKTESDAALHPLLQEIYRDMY
Description: Agonist activity at human PPARalpha in CV1 cells by GAL4 transactivation assay after 24 hrs

[2] = biological target: T2, Peroxisome proliferator-activated receptor gamma (Homo sapiens, UniProt P37231)
T2 sequence (P37231 whole entry): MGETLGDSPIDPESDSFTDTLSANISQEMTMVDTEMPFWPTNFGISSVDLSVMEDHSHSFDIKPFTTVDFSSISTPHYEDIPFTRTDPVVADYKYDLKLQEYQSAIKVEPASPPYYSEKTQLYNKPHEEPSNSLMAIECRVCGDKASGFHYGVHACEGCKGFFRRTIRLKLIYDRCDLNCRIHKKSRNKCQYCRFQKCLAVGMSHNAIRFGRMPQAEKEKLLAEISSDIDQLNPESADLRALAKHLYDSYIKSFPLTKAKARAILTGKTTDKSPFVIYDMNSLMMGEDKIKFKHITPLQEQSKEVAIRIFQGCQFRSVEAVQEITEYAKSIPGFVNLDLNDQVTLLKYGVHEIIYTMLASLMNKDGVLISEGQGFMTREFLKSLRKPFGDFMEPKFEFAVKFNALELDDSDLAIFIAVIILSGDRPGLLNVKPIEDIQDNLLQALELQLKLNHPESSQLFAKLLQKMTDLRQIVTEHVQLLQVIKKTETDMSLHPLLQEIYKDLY
Description: Agonist activity at human PPARgamma in CV1 cells by GAL4 transactivation assay after 24 hrs

Compound | pEC50 [1] | pEC50 [2]
CCO[C@@H](Cc1ccc(CCCOC(=S)NCc2ccccc2)cc1)C(=O)O | 5.83 | 5.85
CCO[C@@H](Cc1ccc(OCC(OC(=S)NCc2ccccc2)c2ccccc2)cc1)C(=O)O (some centres undefined) | 5.21 | 5.14
CCO[C@@H](Cc1ccc(CCC(OC(=S)NCCc2ccccc2)c2ccccc2)cc1)C(=O)O (some centres undefined) | 6.06 | 6.31
CCNC(=S)OC(CCc1ccc(C[C@H](OCC)C(=O)O)cc1)c1ccccc1 (some centres undefined) | 4.69 | 5.27
CCO[C@@H](Cc1ccc(CCC(OC(=S)NCc2ccccc2)c2ccccc2)cc1)C(=O)O (some centres undefined) | – | 6.24
CCO[C@H](Cc1ccc(CCC(OC(=S)NCCc2ccccc2)c2ccccc2)cc1)C(=O)O (some centres undefined) | 5.56 | 5.98
CCCCNC(=S)OC(CCc1ccc(C[C@H](OCC)C(=O)O)cc1)c1ccccc1 (some centres undefined) | 5.14 | 5.44
CCO[C@@H](Cc1ccc(CCC(OC(=S)NCC2CCCCC2)c2ccccc2)cc1)C(=O)O (some centres undefined) | 4.97 | 5.97
CCO[C@@H](Cc1ccc(CCC(OC(=O)NCc2ccccc2)c2ccccc2)cc1)C(=O)O (some centres undefined) | 5.22 | 5.85
CCO[C@H](Cc1ccc(CCC(OC(=S)NCc2ccc(C(C)(C)C)cc2)c2ccccc2)cc1)C(=O)O (some centres undefined) | 6.42 | 6.85
CCO[C@H](Cc1ccc(CCC(OC(=S)NCc2ccccc2)c2ccccc2)cc1)C(=O)O (some centres undefined) | – | 6.46
CCO[C@@H](Cc1ccc(CCC(O)c2ccccc2)cc1)C(=O)O (some centres undefined) | 5.82 | 6.52
CCO[C@@H](Cc1ccc(CCC(OC(=S)NCc2ccc(C(C)(C)C)cc2)c2ccccc2)cc1)C(=O)O (some centres undefined) | 5.49 | 6.80
CCO[C@@H](Cc1ccc(CCC(OC(=S)Nc2ccccc2)c2ccccc2)cc1)C(=O)O (some centres undefined) | 5.28 | 5.34
CCCNC(=S)OC(CCc1ccc(C[C@H](OCC)C(=O)O)cc1)c1ccccc1 (some centres undefined) | 5.40 | 5.46
Cc1ccc(C)c(OCCCC(C)(C)C(=O)O)c1 [GEMFIBROZIL] | 3.71 | –
